SMILES strings stand for the structures. Where a name gives a salt, the structure may show the parent alone. Bounds are passed on as bounds.

In the first assay the target is T1, haematopoietic prostaglandin D synthase (H-PGDS) (Homo sapiens, UniProt O60760).
T1 construct: Full length human H-PGDS cDNA (Invitrogen Ultimate ORF IOH13026) was amplified by PCR; made in house; host or cells: E. coli BL21 (DE3*), vector pET22b+
T1 sequence (O60760 whole entry): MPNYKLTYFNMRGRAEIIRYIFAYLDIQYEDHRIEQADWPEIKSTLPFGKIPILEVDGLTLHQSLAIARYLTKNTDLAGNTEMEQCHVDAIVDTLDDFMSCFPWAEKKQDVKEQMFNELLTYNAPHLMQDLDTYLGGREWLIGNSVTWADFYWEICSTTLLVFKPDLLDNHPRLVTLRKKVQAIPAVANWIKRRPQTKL
Nature of the assay: H-PGDS RapidFire High Throughput Mass Spectrometry Assay. In kind it is biochemical. The note with it: H-PGDS RapidFire MS assay, mean pIC50; read-out: Potency Range (mean pIC50) (converted). On the procedure:
The H-PGDS RapidFire™ mass spectrometric assay monitors conversion of prostaglandin H2 (PGH2) to prostaglandin D2 (PGD2) by haematopoietic prostaglandin D synthase (H-PGDS). In the assay format described here, the substrate (PGH2) is formed in situ by the action of cyclooxygenase-2 on arachidonic acid. This first step is set up to be fast, and generates a burst of PGH2 at ˜10 μM. The PGH2 is then further converted to PGD2 by the H-PGDS enzyme. […] Plates are then read on the RapidFire™ high throughput solid phase extraction system (Agilent) which incorporates a solid phase extraction step coupled to a triple quadrupole mass spectrometer (AB SCIEX). Relative levels of PGD2 and PGF2α, which acts as a surrogate for substrate, are measured and a percent conversion calculated.
Full length human H-PGDS cDNA (Invitrogen Ultimate ORF IOH13026) was amplified by PCR with the addition of a 5′ 6-His tag and TEV protease cleavage site. The PCR product was digested with Ndel and Xhol and ligated into pET22b+ (Merck Novagen®). Expression was carried out in E. coli strain BL21 (DE3*) using auto-induction Overnight Express™ Instant TB medium (Merck Novagen®) supplemented with 1% glycerol. The culture was first grown at 37° C. and the temperature was reduced to 25° C. when OD600 reached 2.0. Cells were harvested by centrifugation after a further 18 hr. 10 g of E. coli cell pellet was suspended to a total volume of 80 mL in lysis buffer (20 mM Tris-Cl pH 7.5, 300 mM NaCl, 20 mM imidazole, 5 mM β-mercaptoethanol, 10% glycerol). 1 mg/mL protease inhibitors (Protease Inhibitor Cocktail Set Ill, Merck Calbiochem®) and 1 mg/mL lysozyme were added to the cell suspension. The suspension was then sonicated for 5 min (UltraSonic Processor VCX 750, Cole-Parmer Instrument Co.) with a micro probe (50% amplitude, 10 sec on/off) and then centrifuged at 100,000 g for 90 min (at 4° C.). The supernatant was loaded onto a Ni-NTA HiTrap column (5 mL, GE Heathcare, pre-equilibrated in lysis buffer). The column was washed with 10 column volumes of lysis buffer and eluted with lysis buffer containing 500 mM imidazole. The pooled protein peak fractions were concentrated using a 10 kDa centrifugal filter at 3500 g and 4° C. (Amicon Ultra-15 centrifugal filter unit with Ultracel-10 membrane from Millipore). Further purification of the concentrated protein was carried out using gel filtration chromatography on a HiLoad 26/600 Superdex 75 preparative grade column (GE Healthcare Life Sciences) using 50 mM Tris pH 7.5, 50 mM NaCl, 1 mM dithiothreitol, 1 mM MgCl2. Fractions containing the protein were pooled, concentrated as described above, and stored at −80° C.
The full length human COX-2 gene (accession number L15326) was amplified by PCR to generate an EcoRI-HindIII fragment containing an in-frame FLAG tag. This was subcloned into pFastBac 1 (Invitrogen). The COX2 FLAG plasmid was recombined into the baculovirus genome according to the BAC-to-BAC protocol described by Invitrogen. Transfection into Spodoptera frugiperda (Sf9) insect cells was performed using Cellfectin (Invitrogen), according to the manufacturer's protocol. […] Recombinant virus was added at a Multiplicity of Infection (MOI) of 5 and the culture was allowed to continue for 3 days. Cells were harvested using a continuous feed centrifuge run at 2500 g at a rate of approximately 2 L/min with cooling. The resultant cell slurry was re-centrifuged in pots (2500 g, 20 min, 4° C.) and the cell paste was stored at −80° C. […] The suspension was sonicated in 500 mL batches for 8×5 seconds at 10 u amplitude with the medium tip of an MSE probe sonicator and subsequently incubated at 4° C. for 90 min with gentle stirring. The lysate was centrifuged at 12000 rpm for 45 min at 4° C. in a Sorvall SLA1500 rotor. The supernatant (1400 mL) was added to 420 mL of 20 mM Tris-Cl pH 7.4, 150 mM NaCl, 0.1 mM EDTA to reduce the concentration of n-octyl-β-D-glucopyranoside to 1% w/v.
For `O=C(N[C@H]1CC[C@H](C(O)C(F)(F)F)CC1)c1cnc2cc(OC(F)F)ccc2c1` (stereo partly drawn) [Example 15, 7-(Difluoromethoxy)-N-(trans-4-(2,2,2-trifluoro-1-hydroxyethyl)cyclohexyl)quinoline-3-carboxamide], the IC50 was less than 10 nM.
On the same count and under the same terms, next, `CC(O)CO[C@H]1CC[C@H](NC(=O)c2cnc3cc(OC(F)F)ccc3c2)CC1` (stereo partly drawn) [Example 16, 7-(Difluoromethoxy)-N-(trans-4-(2-hvdroxypropoxy)cyclohexyl)quinoline-3-carboxamide]: 10 to 79.4 nM; `O=C(N[C@H]1CC[C@H](C2(O)CC2)CC1)c1cnc2cc(OC(F)F)ccc2c1` [Example 18, 7-(Difluoromethoxy)-N-(trans-4-(1-hydroxycyclopropyl)cyclohexyl)quinoline-3-carboxamide]: less than 10 nM; `CC(O)(CO[C@H]1CC[C@H](NC(=O)c2cnc3cc(OC(F)F)ccc3c2)CC1)C(F)(F)F` (stereo partly drawn) [Example 19, 7-(Difluoromethoxy)-N-(trans-4-(3,3,3-trifluoro-2-hydroxy-2-methylpropoxy)cyclohexyl)quinoline-3-carboxamide]: 10 to 79.4 nM.
`NCCCOC[C@H]1CC[C@H](NC(=O)c2cnc3cc(OC(F)F)ccc3c2)CC1` [Example 23, N-(trans-4-((3-Aminopropoxy)methyl)cyclohexyl)-7-(difluoromethoxy)quinoline-3-carboxamide]: the IC50 was 10 to 79.4 nM.
As for `Cn1nnnc1N1CCC(NC(=O)c2cnc3cc(C4CC4)c(C#N)cc3c2)CC1` [Example 24, 6-Cyano-7-cyclopropyl-N-(1-(1-methyl-1H-tetrazol-5-yl)piperidin-4-yl)quinoline-3-carboxamide], the IC50 is 10 to 79.4 nM.
As for `N#Cc1cc2cc(C(=O)N[C@H]3CCNC3=O)cnc2cc1C1CC1` [Example 25, (S)-6-Cyano-7-cyclopropyl-N-(2-oxopyrrolidin-3-yl)quinoline-3-carboxamide hydrochloride], the IC50 is 10 to 79.4 nM.
On to `N#Cc1cc2cc(C(=O)NC3CC(=O)Nc4ccccc43)cnc2cc1C1CC1` (stereo not drawn) [Example 26, 6-Cyano-7-cyclopropyl-N-(2-oxo-1,2,3,4-tetrahydroquinolin-4-yl)quinoline-3-carboxamide], for which the IC50 is less than 10 nM.
Regarding `Cn1nnnc1N1CCC(NC(=O)c2cnc3cc(Br)c(Cl)cc3c2)CC1` [Example 27, 7-Bromo-6-chloro-N-(1-(1-methyl-1H-tetrazol-5-yl)piperidin-4-yl)quinoline-3-carboxamide], the IC50 was 10 to 79.4 nM.
As to `COc1cccc2cc(C(=O)Nc3nccs3)cnc12` [Example 28, 8-Methoxy-N-(thiazol-2-yl)quinoline-3-carboxamide], the IC50 is 10 to 79.4 nM.
Regarding `COc1cc2ncc(C(=O)NC3CCN(c4nnnn4C)CC3)cc2cc1C` [Example 29, 7-Methoxy-6-methyl-N-(1-(1-methyl-1H-tetrazol-5-yl)piperidin-4-yl)quinoline-3-carboxamide], the IC50 is 10 to 79.4 nM.
In the case of `COc1cc(F)c2cc(C(=O)NC3CCN(c4nnnn4C)CC3)cnc2c1` [Example 30, 5-Fluoro-7-methoxy-N-(1-(1-methyl-1H-tetrazol-5-yl)piperidin-4-yl)quinoline-3-carboxamide], the IC50 was 10 to 79.4 nM.
Turning to `COc1c(Cl)ccc2cc(C(=O)NC3CCN(c4nnnn4C)CC3)cnc12` [Example 31, 7-Chloro-8-methoxy-N-(1-(1-methyl-1H-tetrazol-5-yl)piperidin-4-yl)quinoline-3-carboxamide], the IC50 was 100 to 1000 nM.
As to `COc1cc2ncc(C(=O)NC3CCN(c4nnnn4C)CC3)cc2cc1Cl` [Example 32, 6-Chloro-7-methoxy-N-(1-(1-methyl-1H-tetrazol-5-yl)piperidin-4-yl)quinoline-3-carboxamide], the IC50 was 10 to 79.4 nM.
As for `COc1ccc2cc(C(=O)NC3CCN(c4nnnn4C)CC3)cnc2c1OC` [Example 33, 7,8-Dimethoxy-N-(1-(1-methyl-1H-tetrazol-5-yl)piperidin-4-yl)quinoline-3-carboxamide], the IC50 was 10 to 79.4 nM.
For the molecule `Cn1nnnc1N1CCC(NC(=O)c2cnc3cc(C4CC4)c(Cl)cc3c2)CC1` [Example 34, 6-Chloro-7-cyclopropyl-N-(1-(1-methyl-1H-tetrazol-5-yl)piperidin-4-yl)quinoline-3-carboxamide], the IC50 was less than 10 nM.
Consider `O=C(N[C@H]1CCNC1=O)c1cnc2cc(C3CC3)c(Cl)cc2c1` [Example 35, (S)-6-Chloro-7-cyclopropyl-N-(2-oxopyrrolidin-3-yl)quinoline-3-carboxamide hydrochloride], for which the IC50 was less than 10 nM.
For the molecule `O=C(N[C@H]1CCCNC1=O)c1cnc2cc(C3CC3)c(Cl)cc2c1` [Example 36, (S)-6-Chloro-7-cyclopropyl-N-(2-oxopiperidin-3-yl)quinoline-3-carboxamide hydrochloride], the IC50 was 10 to 79.4 nM.
As for `O=C1CC(NC(=O)c2cnc3cc(C4CC4)c(Cl)cc3c2)c2ccccc2N1` (stereo not drawn) [Example 37, 6-Chloro-7-cyclopropyl-N-(2-oxo-1,2,3,4-tetrahydroquinolin-4-yl)quinoline-3-carboxamide], the IC50 is less than 10 nM.
For the molecule `O=C(N[C@H]1CONC1=O)c1cnc2cc(C3CC3)c(Cl)cc2c1` [Example 38, (S)-6-Chloro-7-cyclopropyl-N-(3-oxoisoxazolidin-4-yl)quinoline-3-carboxamide], the IC50 is less than 10 nM.
On to `CC(C)(O)[C@H]1CC[C@H](NC(=O)c2cnc3cc(C4CC4)c(Cl)cc3c2)CC1` [Example 39], for which the IC50 is less than 10 nM.
Consider `C[C@]1(O)C[C@@H](NC(=O)c2cnc3cc(C4CC4)c(Cl)cc3c2)C1` [Example 40, 6-Chloro-7-cyclopropyl-N-((1s,3s)-3-hydroxy-3-methylcyclobutyl)quinoline-3-carboxamide], for which the IC50 was 10 to 79.4 nM.
With `O=C(N[C@H]1CCNC1=O)c1cnc2cc(C3CC3)c(F)cc2c1` [Example 41, (S)-7-cyclopropyl-6-fluoro-N-(2-oxopyrrolidin-3-yl)quinoline-3-carboxamide hydrochloride], the IC50 is 10 to 79.4 nM.
`CC(C)(O)[C@H]1CC[C@H](NC(=O)c2cnc3cc(C4CC4)c(F)cc3c2)CC1` [Example 42, 7-Cyclopropyl-6-fluoro-N-(trans-4-(2-hydroxypropan-2-yl)cyclohexyl)quinoline-3-carboxamide]: the IC50 was less than 10 nM.
The same measure, in the same setting: next, `O=C(N[C@H]1CC[C@H](NCC(F)F)CC1)c1cnc2cc(C3CC3)c(F)cc2c1` [Example 43, 7-Cyclopropyl-N-(trans-4-((2,2-difluoroethyl)amino)cyclohexyl)-6-fluoroquinoline-3-carboxamide]: less than 10 nM; `Cn1nnnc1N1CCC(NC(=O)c2cnc3cc(C4CC4)ccc3c2)CC1` [Example 44, 7-Cyclopropyl-N-(1-(1-methyl-1H-tetrazol-5-yl)piperidin-4-yl)quinoline-3-carboxamide]: less than 10 nM.
Consider `O=C(N[C@H]1CCNC1=O)c1cnc2cc(C3CC3)ccc2c1` [Example 45, (S)-7-Cyclopropyl-N-(2-oxopyrrolidin-3-yl)quinoline-3-carboxamide hydrochloride], for which the IC50 was 10 to 79.4 nM.

Still in this assay, the particulars now being: in at least one experimental run; read-out: H-PGDS pIC50 value (converted).
`O=C(N[C@H]1CC[C@H](C(O)C(F)(F)F)CC1)c1cnc2cc(OC(F)F)ccc2c1` (stereo partly drawn) [Example 15, 7-(Difluoromethoxy)-N-(trans-4-(2,2,2-trifluoro-1-hydroxyethyl)cyclohexyl)quinoline-3-carboxamide]: the IC50 was 7.94 nM.
In the case of `N#Cc1cc2cc(C(=O)N[C@H]3CCNC3=O)cnc2cc1C1CC1` [Example 25, (S)-6-Cyano-7-cyclopropyl-N-(2-oxopyrrolidin-3-yl)quinoline-3-carboxamide hydrochloride], the IC50 was 25.1 nM.
In the case of `O=C(N[C@H]1CCCNC1=O)c1cnc2cc(C3CC3)c(Cl)cc2c1` [Example 36, (S)-6-Chloro-7-cyclopropyl-N-(2-oxopiperidin-3-yl)quinoline-3-carboxamide hydrochloride], the IC50 was 15.8 nM.
